Laboratory results: ChEMBL document CHEMBL1136450, “Synthesis and biological activity of 2-carbomethoxy-3-catechol-8-azabicyclo[3.2.1]octanes” (Bioorg Med Chem Lett, 2003)
pIC50, pKi: −log10 of the molar value.

Legend:
Type in all cases: cell-based, HEK293
[1] = target: T1, Sodium-dependent noradrenaline transporter (Homo sapiens, UniProt P23975); assay: Inhibition of [3H]norepinephrine uptake in HEK cells expressing human NET
[2] = target: T2, Sodium-dependent dopamine transporter (Homo sapiens, UniProt Q01959)
[3] = target: T1, Sodium-dependent noradrenaline transporter
[4] = target: T3, Sodium-dependent serotonin transporter (Homo sapiens, UniProt P31645)
[5] = target: T2, Sodium-dependent dopamine transporter; assay: Inhibition of [3H]dopamine uptake in HEK cells expressing human DAT
[6] = target: T3, Sodium-dependent serotonin transporter; assay: Inhibition of [3H]5-HT uptake in HEK cells expressing human SERT

T1 sequence (P23975 whole entry): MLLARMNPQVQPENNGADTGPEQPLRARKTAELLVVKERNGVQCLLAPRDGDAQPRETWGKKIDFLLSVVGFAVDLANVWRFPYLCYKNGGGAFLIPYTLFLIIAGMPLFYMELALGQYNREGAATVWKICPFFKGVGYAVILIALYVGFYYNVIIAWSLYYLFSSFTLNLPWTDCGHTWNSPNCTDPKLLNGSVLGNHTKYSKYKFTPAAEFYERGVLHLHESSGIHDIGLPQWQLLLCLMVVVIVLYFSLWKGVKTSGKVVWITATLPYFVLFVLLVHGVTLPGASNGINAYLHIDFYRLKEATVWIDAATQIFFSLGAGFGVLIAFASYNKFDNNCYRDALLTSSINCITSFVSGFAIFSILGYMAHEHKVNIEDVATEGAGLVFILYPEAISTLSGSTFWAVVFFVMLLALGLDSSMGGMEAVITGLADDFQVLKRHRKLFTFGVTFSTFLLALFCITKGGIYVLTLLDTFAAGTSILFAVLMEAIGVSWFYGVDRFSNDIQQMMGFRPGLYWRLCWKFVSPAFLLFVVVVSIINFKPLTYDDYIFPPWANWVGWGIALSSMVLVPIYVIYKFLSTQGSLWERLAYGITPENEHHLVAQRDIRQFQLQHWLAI
T3 sequence (P31645 whole entry): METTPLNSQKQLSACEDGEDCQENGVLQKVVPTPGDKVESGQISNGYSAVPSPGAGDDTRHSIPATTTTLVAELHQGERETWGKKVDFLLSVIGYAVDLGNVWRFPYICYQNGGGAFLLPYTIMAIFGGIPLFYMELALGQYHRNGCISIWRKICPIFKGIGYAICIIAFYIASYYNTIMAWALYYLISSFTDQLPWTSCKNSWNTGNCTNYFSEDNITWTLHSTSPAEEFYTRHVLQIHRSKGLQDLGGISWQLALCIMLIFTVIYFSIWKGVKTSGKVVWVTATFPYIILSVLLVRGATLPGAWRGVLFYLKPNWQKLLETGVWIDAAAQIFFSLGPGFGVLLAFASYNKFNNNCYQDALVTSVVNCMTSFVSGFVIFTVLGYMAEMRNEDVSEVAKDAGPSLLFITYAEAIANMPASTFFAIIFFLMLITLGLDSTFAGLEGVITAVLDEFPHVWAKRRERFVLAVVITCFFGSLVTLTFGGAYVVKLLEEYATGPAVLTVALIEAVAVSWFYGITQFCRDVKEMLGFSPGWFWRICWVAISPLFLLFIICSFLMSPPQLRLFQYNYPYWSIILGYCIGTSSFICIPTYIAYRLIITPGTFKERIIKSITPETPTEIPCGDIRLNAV
T2 sequence (Q01959 whole entry): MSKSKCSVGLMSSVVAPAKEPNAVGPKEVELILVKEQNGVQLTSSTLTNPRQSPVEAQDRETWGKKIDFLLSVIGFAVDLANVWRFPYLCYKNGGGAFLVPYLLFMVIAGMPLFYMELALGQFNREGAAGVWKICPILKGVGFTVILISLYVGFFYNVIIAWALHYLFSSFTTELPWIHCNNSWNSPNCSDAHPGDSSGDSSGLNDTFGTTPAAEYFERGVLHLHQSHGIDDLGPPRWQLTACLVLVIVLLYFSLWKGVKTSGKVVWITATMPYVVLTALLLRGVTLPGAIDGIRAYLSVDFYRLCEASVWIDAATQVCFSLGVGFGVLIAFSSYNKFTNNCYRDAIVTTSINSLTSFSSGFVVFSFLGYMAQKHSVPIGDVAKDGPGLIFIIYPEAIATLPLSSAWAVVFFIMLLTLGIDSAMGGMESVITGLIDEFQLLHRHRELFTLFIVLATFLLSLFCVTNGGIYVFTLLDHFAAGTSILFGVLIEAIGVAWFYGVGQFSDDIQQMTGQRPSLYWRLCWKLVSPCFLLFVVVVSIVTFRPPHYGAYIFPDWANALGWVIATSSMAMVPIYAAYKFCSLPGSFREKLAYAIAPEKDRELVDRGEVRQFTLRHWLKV

Compound COC(=O)C1C(c2ccc(O)c(O)c2)CC2CCC1N2C (stereo in doubt; 8) has a pIC50 [1] of 6.76, a pKi [2] of 6.01 and a pKi [3] of 5.51. The pKi [4] was 5.00 and the pIC50 [5] was 6.39.

Work on COC(=O)C1=C(c2ccc(O)c(O)c2)CC2CCC1N2C (stereo not given) yielded a pKi [2] of less than 5.00, a pKi [3] of less than 5.00 and a pKi [4] of less than 5.00.

COC(=O)C1=C(c2ccc(C(C)=O)c(C(C)=O)c2)CC2CCC1N2C (stereo not given) gave a pKi [2] of less than 5.00, a pKi [3] of less than 5.00 and a pKi [4] of less than 5.00.

COC(=O)C1C(c2ccc(C(C)=O)c(C(C)=O)c2)CC2CCC1N2C (stereo in doubt; 10) showed a pIC50 [6] of 6.48, a pKi ([2]; hek293) of less than 5.00 and a pKi ([3]; hek293) of less than 5.00. It also gave a pKi [4] of 6.77.

Work on COC(=O)C1C(c2ccc(OC)c(OC)c2)CC2CCC1N2C (stereo not given) yielded a pIC50 [1] of 5.84, a pIC50 [6] of 7.64 and a pKi [2] of 5.81. It also gave a pKi [3] of 5.35, a pKi [4] of 7.34 and a pIC50 [5] of 5.80.

With COC(=O)C1C(c2ccc(C(C)=O)c(C(C)=O)c2)CC2CCC1N2C (stereo in doubt; 11) the pKi [2] was less than 5.00, the pKi [3] was less than 5.00 and the pKi [4] was 6.15.

COC(=O)C1C(c2ccc(O)c(O)c2)CC2CCC1N2C (stereo in doubt; 7) was tested, and the pIC50 [1] was 6.91, the pIC50 [6] was 6.51 and the pKi [2] was 5.86. It also gave a pKi [3] of 5.53, a pKi [4] of 6.57 and a pIC50 [5] of 6.29.
